Results: US7157256B2, “Method for producing para-hydroxystyrene and other multifunctional aromatic compounds using two-phase extractive fermentation” (E. I. du Pont de Nemours and Company, priority 2003, dated 2007)
Several values for one entry are separate records, joined by “and”; a condition that tells them apart may be missing. Equal entries are not always repeated.

How the values were obtained:
E. coli WWQ51.1 = test: Growth of E. coli with added pHS in two-phase fermentation; format: cell-based; conditions: 0.5 mL pHS (10% w/v) added; 20 mL 2-Undecanone; IPTG 0.5 mM
Description: The strain used in this study was E. coli WWQ51.1, as described in Example 3. The conditions were similar to those described in Example 3. Eight test cultures were inoculated; six contained 20 mL of 2-undecanone, the other two contained 20 mL of 1-undecanol. A 10% w/v solution of pHS in propylene glycol (0.5 mL), obtained from Sigma-Aldrich, Milwaukee, Wis., was added to two of the cultures containing 2-undecanone, as specified in Table 7.
The cultures were incubated in 250 mL baffled flasks at 35° C. and 300 rpm for 24 h in an incubator shaker. After this time, a sample of the aqueous phase was withdrawn and the pH, OD550, and the concentration of the fermentation products were measured, as described supra. The organic phase was also sampled and the concentration of CA and pHS were determined using HPLC, as described supra.

[1] = Partition of pHS between organic solvent and aqueous medium, two-phase flask fermentation; format: physicochemical; conditions: 15 h, 35° C.
Description: Samples were analyzed for tyrosine, phenylalanine, CA, pHCA, and pHS using reverse-phase chromatography with an Agilent HP1100 HPLC system equipped with an autosampler, diode-array detector, and ChemStation for data acquisition and processing (Agilent Technologies, Inc., Wilmington, Del.). The analyses were done using a 4.6 mm×15 cm Zorbax SB-C18 column (3.5 μm particle size), obtained from Agilent Technologies, Inc., thermostated at 35° C. The samples were run using a flow rate of 1.0 mL/min with an eight-minute solvent gradient from 5% acetonitrile/water, containing 0.1% trifluoroacetic acid, to 80% acetonitrile/water, containing 0.1% trifluoroacetic acid. A diode-array detector set at 210, 260, and 280 nm was used to detect the various compounds at their optimum absorbance wavelength.
The aqueous samples were diluted 1:3 with water, while the organic samples were diluted 1:3 with acetonitrile before injection of 50 μL of the sample into the HPLC. A standard mixture of the analytes was prepared by mixing equal portions of solutions of the individual components, each at a concentration of 1 mg/mL.
The strain used in this study was E. coli WWQ51.1, as described in Example 3. […] The OD550, pH, glucose concentration and the pHS concentration of the aqueous phases were measured as described in Example 3. The organic phases were analyzed for pHS using HPLC, as described supra.

SMILES: C=Cc1ccc(O)cc1 [pHS, para-hydroxystyrene]
- OD550 24 h (E. coli WWQ51.1): 15.7 and 12.5
- pHS Partition coeff ([1]; 20 mL 2-undecanone / 50 mL test medium): 20 and 23
- pHS Partition coeff ([1]; 20 mL DBE / 50 mL test medium): 29 and 30 and 31
